Measurements from PubChem BioAssay (NCI).
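Following 48 hours of exposure in 96-well plates, responses at five concentrations were used to interpolate endpoints linearly. Abbreviation: GI50, concentration required for 50% inhibition of growth. TGI denotes the concentration required for complete inhibition of growth.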

What was measured:
Assay in all cases: growth of human tumour cells (NCI), 48 h
[1] = system: OVCAR-8 ovarian
[2] = system: A549 NSCLC
[3] = system: 786-0 renal
[4] = system: TK-10 renal
[5] = system: SF-268 CNS
[6] = system: SK-OV-3 ovarian
[7] = system: OVCAR-3 ovarian
[8] = system: U251 CNS
[9] = system: HCT-15 colon
[10] = system: SNB-19 CNS

SMILES	GI50 [1]	TGI [1]	GI50 [2]	TGI [2]	GI50 [3]	TGI [3]	GI50 [4]	TGI [4]	GI50 [5]	TGI [5]	GI50 [6]	TGI [6]	GI50 [7]	TGI [7]	GI50 [8]	TGI [8]	GI50 [9]	TGI [9]	GI50 [10]	TGI [10]
COc1cc2nc(-c3ccc(C(F)(F)F)cc3)cc(OCCCN3CCCC3)c2cc1OC	0.826 µM	> 49.7 µM	0.685 µM	> 42.7 µM	1.88 µM	6.03 µM	7.51 µM	> 34.5 µM	3.5 µM	> 48.1 µM	6.65 µM	> 53.4 µM	4.07 µM	> 42.2 µM	1.31 µM	18.8 µM	0.429 µM	6.99 µM	5.23 µM	21.5 µM
Cn1c(=O)nc2n(-c3ccc(Cl)c(C(F)(F)F)c3)c3ccccc3nc-2c1=O		83.1 µM		> 86.3 µM		> 100 µM		> 100 µM		> 100 µM		> 100 µM		> 100 µM		> 100 µM		> 100 µM		63.1 µM
O=C1c2cccc3cccc(c23)C(=O)N1O		> 100 µM		> 100 µM		> 100 µM		> 100 µM		> 100 µM		> 100 µM		> 100 µM		> 100 µM		> 100 µM		> 100 µM
COc1ccc2[nH]c(-c3ccc(O)cc3)cc(=O)c2c1		13.1 µM		> 59.4 µM		> 58.1 µM		> 89.7 µM		20.6 µM		7.49 µM		13.1 µM		9.29 µM		7.03 µM		> 100 µM
CCCCCCCCCCCCCCCCCCOCC(COCCOCC[N+]1(CCCCCC(=O)[O-])CCCC1)Oc1ncccn1 (stereo not given)		15.9 µM		20 µM		22.2 µM		20.3 µM		16.5 µM		6.62 µM		20.4 µM		8.5 µM		25.5 µM		16.5 µM
COc1ccc(-c2cnoc2-c2cc(OC)c3c(c2)OCCO3)cc1	0.0524 µM	> 59.1 µM	0.048 µM	> 100 µM	0.0629 µM	> 56.5 µM	16.7 µM	> 100 µM	0.127 µM	> 100 µM	0.0312 µM	2.8 µM	< 0.0172 µM	1.55 µM	0.0521 µM	> 100 µM	0.0258 µM	28.1 µM	0.0525 µM	> 100 µM
O=[N+]([O-])c1ccc(-c2cc3c(Nc4ccc(Cl)c(C(F)(F)F)c4)ncnc3s2)cc1	2.67 µM	> 100 µM	1.38 µM	> 100 µM	1.1 µM	> 20.6 µM	3.56 µM	> 100 µM	1.34 µM	> 100 µM	2.77 µM	> 26.3 µM	0.605 µM	> 100 µM	1.38 µM	> 87.8 µM	1.01 µM	> 100 µM	1.29 µM	> 86.4 µM
Cc1ccc(C)c(N2C(=O)C(=O)C(c3nc4ccccc4s3)C(=Nc3cccc4c(=O)[nH][nH]c(=O)c34)C2=O)c1 (stereo not given)		> 100 µM		> 100 µM		> 100 µM		> 100 µM		> 100 µM		> 100 µM		> 100 µM		> 100 µM		> 100 µM		> 100 µM
CCN(CC)c1ccc(/C=C/C2=[N+](C)c3ccccc3C2(C)C)c(C)c1	0.0629 µM	3.12 µM	0.0964 µM	14.1 µM	0.0941 µM	1.88 µM	0.0779 µM	5.3 µM	0.1 µM	2.11 µM	0.0546 µM	0.21 µM	0.0616 µM	1.47 µM	0.0364 µM	2.54 µM	0.321 µM	10.9 µM	0.0684 µM	9.36 µM
N.N.N.N.N.O=S(=O)([O-])S(=O)(=O)[O-].[Co+3]	> 100 µM	> 100 µM	> 100 µM	> 100 µM	> 100 µM	> 100 µM	> 100 µM	> 100 µM	> 100 µM	> 100 µM	> 100 µM	> 100 µM	> 100 µM	> 100 µM	> 100 µM	> 100 µM	> 100 µM	> 100 µM	> 100 µM	> 100 µM
COc1cc(C2c3cc4c(cc3[C@@H](Nc3ccc5c(c3)OCCO5)C3COC(=O)[C@H]23)OCO4)cc(OC)c1O (stereo not given in full)		25.6 µM		7.15 µM		3.11 µM		11.6 µM		23.1 µM		8.7 µM		7.1 µM		8.26 µM		7.23 µM		66.6 µM
C=C1C(=O)C23C(O)C1CC[C@H]2C12CCCC(C)(COC(C)=O)[C@H]1[C@H](O)[C@]3(O)OC2 (stereo not given in full)		3.52 µM		9.95 µM		2.24 µM		3.62 µM		6.95 µM		13.3 µM		2.99 µM		5.4 µM		2.37 µM		7.03 µM
